Test results: patent US11266650B2, “Pharmaceutical composition for preventing and treating nonalcoholic steatohepatitis, hepatic fibrosis, and liver cirrhosis, comprising adenosine derivatives” (FUTURE MEDICINE CO., LTD., priority 2016, dated 2022)
Where “and” joins values, the source holds several entries; their conditions need not be identical. Equal values may be shown once.

Key:
[1] = Kinetic solubility; assay type: physicochemical; conditions: kinetic from dmso stock
[2] = Equilibrium solubility; assay type: physicochemical; conditions: thermodynamic from solid
[3] = Log P; assay type: physicochemical
[4] = pKa; assay type: physicochemical
[5] = PAMPA; assay type: in vitro ADME
[6] = Plasma stability, rat plasma; assay type: in vitro ADME
Method: (§1) Plasma stability and protein binding were measured using rat and human plasma.

[7] = Plasma stability, human plasma; assay type: in vitro ADME
Method: as §1

[8] = Plasma protein binding, rat plasma; assay type: in vitro ADME
Method: as §1

[9] = Plasma protein binding, human plasma; assay type: in vitro ADME
Method: as §1

[10] = Pharmacokinetic test in SD male rats (Experimental Examples 11, 12, 15); assay type: in vivo; conditions: plasma, rat; for Vd: read-out: Vss; for bioavailability: read-out: Ft (bioavailability)
Method: (§2) Intravenous administration was performed through a tube inserted into the femoral vein, and oral administration was performed using oral gavage.
(§3) After the administration, the experimental animals' blood was taken at predetermined time intervals for 24 hours. Then, the blood was centrifuged to separate plasma. The plasma samples were pretreated with a suitable organic solvent, and then the concentration of the plasma samples was analyzed by LC-MS/MS. […] The results of noncompartmental pharmacokinetic parameters calculated from the blood concentration-time data are shown in Tables 9 through 13. In FIGS. 12 through 16, I.V. represents an intravenous administration group, P.O. represents an oral administration group, and the definition of each parameter in Tables 9 through 13 is shown in Table 14.

[11] = Pharmacokinetic test in ICR male mice (Experimental Example 13); assay type: in vivo; conditions: mouse, plasma, po, P.O., 10 mg/kg
Method: as §2, §3

[12] = Pharmacokinetic test in dogs (Experimental Example 14); assay type: in vivo; conditions: dog, plasma; for bioavailability: read-out: Ft (bioavailability)
Method: as §2, §3

[13] = tested on: each cell line; experiment: Cytotoxicity, Cyto X cell viability assay kit; assay type: cell-based
[14] = molecular target: hERG channel protein (Homo sapiens, UniProt Q12809); experiment: hERG ligand binding assay (fluorescence polarization)
[15] = tested on: histidine-requiring Salmonella (strains TA98, TA100, TA1535 and TA1537) and tryptophan-requiring Escherichia coli (strain WP2uvrA (pKM101)); assay type: cell-based
Text: In addition, for each strain, the number of back-mutant colonies in the positive control group certainly exceeded twice the number of back-mutant colonies in the negative control group.

[16] = tested on: rats; conditions: rat, in vivo
[17] = tested on: rats; experiment: Single-dose toxicity in rats; conditions: rat, in vivo
[18] = tested on: ICR mice; experiment: Toxicity assay, intraperitoneal injection, mice; conditions: i.p. 20, 10 and 1 mg/kg
Method: (§4) The compounds synthesized in the examples of the present invention were assayed for cytotoxicity in animals.

[19] = tested on: SPF Sprague Dawley rats; experiment: Toxicity assay, intraperitoneal injection, rats; conditions: i.p. 20, 10 and 1 mg/kg
Method: as §4

[20] = po, 5 mg/kg, P.O., 5 mg/kg (Exp. 11-2)
[21] = po, 10 mg/kg, 10 mg/kg (Exp. 12-2)
[22] = po, 10 mg/kg, oral 10 mg/kg in 0.5% MC (Exp. 15-1)
[23] = po, 10 mg/kg, oral 10 mg/kg in Vehicle: 5% DMSO, 40% PEG400 and 55% DW (Exp. 15-2)
[24] = po, 10 mg/kg, G2, PO, dissolved in a solvent
[25] = po, 10 mg/kg, G3, PO, powder state in a capsule

Sequence of hERG channel protein (Q12809 whole entry): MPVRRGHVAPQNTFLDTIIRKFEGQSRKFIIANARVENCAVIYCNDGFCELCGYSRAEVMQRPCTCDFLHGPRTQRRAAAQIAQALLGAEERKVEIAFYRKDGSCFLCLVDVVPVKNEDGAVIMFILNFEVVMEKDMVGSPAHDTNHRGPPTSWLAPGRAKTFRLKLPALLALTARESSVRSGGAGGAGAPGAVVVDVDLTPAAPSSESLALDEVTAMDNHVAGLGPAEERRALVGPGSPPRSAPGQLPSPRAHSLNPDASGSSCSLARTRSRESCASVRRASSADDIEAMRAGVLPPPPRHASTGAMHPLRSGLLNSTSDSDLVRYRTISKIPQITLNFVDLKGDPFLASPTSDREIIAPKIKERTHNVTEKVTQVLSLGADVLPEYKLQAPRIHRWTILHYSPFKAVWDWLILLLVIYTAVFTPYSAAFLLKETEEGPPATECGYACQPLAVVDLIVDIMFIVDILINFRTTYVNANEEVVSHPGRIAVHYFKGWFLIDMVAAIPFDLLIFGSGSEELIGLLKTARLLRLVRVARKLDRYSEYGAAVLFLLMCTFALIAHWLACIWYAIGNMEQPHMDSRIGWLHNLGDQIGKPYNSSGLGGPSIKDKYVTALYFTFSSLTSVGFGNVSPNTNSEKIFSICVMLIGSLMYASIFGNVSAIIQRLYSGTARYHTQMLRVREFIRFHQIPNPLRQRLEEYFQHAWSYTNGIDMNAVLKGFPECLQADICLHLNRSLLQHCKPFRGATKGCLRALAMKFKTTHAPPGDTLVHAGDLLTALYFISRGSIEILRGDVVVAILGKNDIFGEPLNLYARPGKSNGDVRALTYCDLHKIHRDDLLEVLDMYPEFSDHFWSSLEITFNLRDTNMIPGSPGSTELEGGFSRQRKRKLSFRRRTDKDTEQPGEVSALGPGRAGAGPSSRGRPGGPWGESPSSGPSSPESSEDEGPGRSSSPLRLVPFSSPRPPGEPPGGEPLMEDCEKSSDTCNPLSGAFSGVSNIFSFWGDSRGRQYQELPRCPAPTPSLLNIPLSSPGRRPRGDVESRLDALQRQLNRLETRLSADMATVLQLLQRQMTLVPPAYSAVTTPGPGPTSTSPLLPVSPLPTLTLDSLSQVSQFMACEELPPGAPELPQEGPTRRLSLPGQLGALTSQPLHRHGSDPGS

In the case of `O[C@@H]1[C@H](O)CS[C@H]1n1cnc2c(NCc3cccc(Cl)c3)nc(Cl)nc21` [Example 2, (2R,3R,4S)-2-(2-Chloro-6-(3-chlorobenzylamino)-9H-purin-9-yl)tetrahydrothiophen-3,4-diol], the solubility kinetic [1] is reported as 361 µM and 149 µg/mL, the solubility thermodynamic [2] is reported as 6.7 µM and 2.76 µg/mL and the logP [3] is reported as 3.18. For the same compound, the pKa [4] was 11.3, the PAMPA [5] was −4.49 and the Plasma stability [6] was greater than 99.9%. For the same compound, the Plasma stability [7] was 98.9%, the fraction unbound [8] was 0.098 and the fraction unbound [9] was 0.013. The clearance ([10]; iv, I.V., 5 mg/kg) was 6.05 mL/min/kg, the Vd ([10]; iv, I.V., 5 mg/kg) was 0.881 ± 0.203 L/kg and the bioavailability ([10]; po, P.O., 5 mg/kg) was 49.7%. It also gave a clearance ([10]; IV, 2 mg/kg) of 6.08 mL/min/kg, a Vd ([10]; IV, 2 mg/kg) of 2.27 ± 0.863 L/kg and a bioavailability ([10]; PO, 10 mg/kg (Exp. 12-2)) greater than 99.9%. The AUC(0-inf) ([10]; iv, 2 mg/kg) was 5490 ± 300 ng·h/mL, the AUC(0-t) ([10]; iv, 2 mg/kg) was 5200 ± 548 ng·h/mL and the half-life ([10]; iv, 2 mg/kg, 2 mg/kg (Exp. 12-1)) was 6 ± 2.98 h. For the same compound, the AUC(0-inf) ([10]; iv, 5 mg/kg, I.V.) was 14100 ± 2590 ng·h/mL, the AUC(0-t) ([10]; iv, 5 mg/kg, I.V.) was 14000 ± 2550 ng·h/mL and the half-life ([10]; iv, 5 mg/kg, I.V., 5 mg/kg (Exp. 11-1)) was 3.6 ± 0.589 h. For the same compound, the AUC(0-inf) ([10]; po, 5 mg/kg, P.O.) was 7040 ± 551 ng·h/mL, the AUC(0-t) ([10]; po, 5 mg/kg, P.O.) was 6980 ± 584 ng·h/mL and the Cmax [10, 20] was 1450 ± 255 ng/mL. The Tmax [10, 20] was 1.33 ± 0.577 h, the half-life [10, 20] was 3.26 ± 0.945 h and the AUC(0-inf) [10, 21] was 26700 ± 75 ng·h/mL. It also gave an AUC(0-t) [10, 21] of 26500 ± 5880 ng·h/mL, a Cmax [10, 21] of 2710 ± 183 ng/mL and a Tmax [10, 21] of 2.42 ± 3.13 h. For the same compound, the half-life [10, 21] was 3.34 ± 0.075 h, the AUC(0-inf) [10, 22] was 41400 ± 26000 ng·h/mL and the AUC(0-t) [10, 22] was 40100 ± 26800 ng·h/mL. For the same compound, the Cmax [10, 22] was 5720 ± 6110 ng/mL, the Tmax [10, 22] was 1.33 ± 0.58 h and the half-life [10, 22] was 4.56 ± 2.8 h. It also gave an AUC(0-inf) [10, 23] of 26700 ± 75 ng·h/mL, an AUC(0-t) [10, 23] of 26500 ± 5880 ng·h/mL and a Cmax [10, 23] of 2710 ± 183 ng/mL. For the same compound, the Tmax [10, 23] was 2.42 ± 3.13 h, the half-life [10, 23] was 3.34 ± 0.075 h and the AUC(0-inf) [11] was 102000 ± 13500 ng·h/mL. For the same compound, the AUC(0-t) [11] was 100000 ± 13200 ng·h/mL, the Cmax [11] was 8570 ± 1520 ng/mL and the Tmax [11] was 6.13 ± 3.75 h. For the same compound, the half-life [11] was 3.61 ± 0.3 h, the AUC(0-inf) ([12]; iv, 2 mg/kg, G1, IV) was 1070 ± 620 ng·h/mL and the AUC(0-t) ([12]; iv, 2 mg/kg, G1, IV) was 948 ± 464 ng·h/mL. For the same compound, the half-life ([12]; iv, 2 mg/kg, G1, IV) was 2.17 ± 0.867 h, the bioavailability ([12]; po, 10 mg/kg, G2, PO, 10 mg/kg, dissolved in a solvent) was 82% and the AUC(0-inf) [12, 24] was 3990 ± 1090 ng·h/mL. The AUC(0-t) [12, 24] was 3880 ± 1030 ng·h/mL, the Cmax [12, 24] was 467 ± 73 ng/mL and the Tmax [12, 24] was 1.67 ± 0.58 h. It also gave a half-life [12, 24] of 4.21 ± 1.41 h, a bioavailability ([12]; po, 10 mg/kg, G3, PO, 10 mg/kg, powder state in a capsule) greater than 99.9% and an AUC(0-inf) [12, 25] of 6350 ± 830 ng·h/mL. It also gave an AUC(0-t) [12, 25] of 5640 ± 840 ng·h/mL, a Cmax [12, 25] of 1140 ± 230 ng/mL and a Tmax [12, 25] of 2 h. The half-life [12, 25] was 5.53 ± 3.06 h, the clearance ([12]; G1, IV, 2 mg/kg) was 37.8 mL/min/kg and the Vd ([12]; G1, IV, 2 mg/kg, read-out: Vss) was 6.02 ± 0.79 L/kg. For the same compound, the “Toxicity, Cytotoxicity evaluation” value [13] was “Not detected”, the IC50 ([13]; each cell line) was no less than 10 µM and the “Toxicity, hERG ligand binding assay evaluation” value [14] was “Not detected”. The “inhibition rate, hERG ligand binding” value ([14]; 10 μM of the compound) was no more than 50%, the “Toxicity, Genotoxicity evaluation” value [15] was “Not detected” and the “number of back-mutant colonies vs negative control group” value ([15]; all doses of each strain, with and without metabolic activation) was “did not exceed twice the number of back-mutant colonies of the negative control group”. The “death after single dose” value [16] was “no animals died”, the “Toxicity, Single-dose toxicity evaluation” value [17] was “Not detected” and the “weight gain or feed intake vs control group” value [18] was “No difference in weight gain or feed intake”. For the same compound, the death ([18]; 24 hrs observation) was “No death was observed”, the “weight gain or feed intake vs control group” value [19] was “No difference in weight gain or feed intake” and the death ([19]; 24 hrs observation) was “No death was observed”.
